Where “and” joins values, the source holds several entries; their conditions need not be identical. Identical values can stand only once.
Experiments:
[1] = Aqueous dispersibility; format: physicochemical; conditions: sterile-filtered deionized water
Source text: In some embodiments, highly water-dispersible C40 carotenoid derivatives may include natural source RRR-lutein (β,ε-carotene-3,3′-diol) derivatives. Derivatives may be synthesized by esterification with inorganic phosphate and succinic acid, respectively, and subsequently converted to the sodium salts. Deep orange, evenly colored aqueous suspensions were obtained after addition of these derivatives to USP-purified water. […] Aqueous suspensions may be obtained without the addition of heat, detergents, co-solvents, or other additives.
Disodium disuccinate astaxanthin (DDA; see FIG. 1B) was synthesized from commercially available crystalline astaxanthin (Buckton Scott, India) as previously described in Frey, et al. (“The efficient synthesis of disodium disuccinate astaxanthin (Cardax).” Org Process Res Dev 8: 796-801, 2004.). The final product purity was 97% (as area under the curve) by HPLC analysis. DDA was dissolved directly in sterile-filtered deionized water. The maximum aqueous dispersibility of DDA is approximately 10 mM, or 8.64 mg/ml. Vehicle consisted of isotonic sterile 0.9% NaCl solution.

[2] = Tongue bleeding time; format: in vivo, beagle dogs; conditions: DDA 10, 30 or 50 mg/kg followed by rt-PA
Procedure: Tongue bleeding time (BT) was determined with the use of a SurgiCut™ (International Technidyne Corp, Edison, N.J.) device that makes a uniform incision 5 mm long and 1 mm deep on the upper surface of the tongue. The tongue lesion was blotted with filter paper every 20 sec until the transfer of blood to the filter paper was no longer apparent. The interval, from the time of the tongue incision until the time that blood was no longer transferred to the filter paper, was recorded as the tongue bleeding time.

[3] = tested on: platelet aggregation; test: Ex vivo platelet aggregation induced with ADP or AA; format: in vivo, beagle dogs
Procedure: Whole blood (10 ml) was drawn from a right femoral vein cannula into a plastic syringe containing 3.7% sodium citrate as the anticoagulant (1:100 volume ratio of citrate to blood). A whole blood cell count was determined with an H-2000 cell counter (Texas International Laboratories, Inc., Culver City, Calif.). Platelet-rich plasma (PRP), the supernatant present after centrifugation of whole blood at 100×g for 10 min, was diluted with Platelet-poor plasma (PPP) to achieve a platelet count of approximately […]. PPP was prepared by centrifuging the remaining blood at 1,500×g for 10 min and discarding the bottom cellular layer. Ex vivo platelet aggregation was assessed by established spectrophotometric methods with the use of a four-channel aggregometer (BioData PAP-4; BioData Corp., Horsham, Pa.) by recording the increase in light transmission through a stirred suspension of PRP maintained at 37° C. Aggregation was induced with ADP (20 μM) or AA (0.65 mM). A subaggregatory concentration of epinephrine (550 nM) was used to prime the platelets before addition of the agonists to induce platelet aggregation. Values for platelet aggregation are expressed as percentage of light transmission standardized to PRP and PPP samples yielding 0 and 100% light transmission, respectively.

[4] = Hemodynamic variables during canine thrombosis protocol; format: in vivo, beagle dogs

## CC1=C(/C=C/C(C)=C/C=C/C(C)=C/C=C/C=C(C)/C=C/C=C(C)/C=C/C2=C(C)C(=O)C(OC(=O)CCC(=O)O)CC2(C)C)C(C)(C)CC(OC(=O)CCC(=O)O)C1=O (stereo not shown) [DDA, Disodium disuccinate astaxanthin]
[1]
  maximum aqueous dispersibility: approximately 10 mM and ~8.64 mg/ml
[2]
  tongue template bleeding time, baseline vs after drug treatment: similar
[3]; DDA 10, 30 or 50 mg/kg, ADP 20 μM or AA 0.65 mM
  ex vivo platelet aggregation responses to AA and ADP: dose dependently attenuated
[3]; DDA 30 and 50 mg/kg doses
  ex vivo platelet aggregation: Significant reductions
[4]; DDA 50 mg/kg
  time for blood pressure to return to original values: ≤ 30 min
[4]; DDA 50 mg/kg, seen in 5 dogs
  transient decrease in arterial blood pressure: < 15%
[4]; all groups (DDA 10, 30, 50 mg/kg)
  mean arterial blood pressure and heart rate throughout the protocol: did not differ significantly

Reference: patent US8063101B2, “Carotenoid analogs and derivatives for the prevention of platelet aggregation” (Cardax Pharmaceuticals, Inc., priority 2007, dated 2011)
